# Assay results: patent publication US20250221947A1, “METHODS FOR TREATING A CORONAVIRUS INFECTION USING VALPROIC ACID AND DOCOSAHEXAENOIC ACID” (priority 2024, published 2025)
# Values joined by “and” are separate entries in the source; they are usually repeats but may differ in a detail not shown here. Equal values may be shown once. “Also recorded” adds a separate entry of the source. Read-outs that look alike come from different tables or passages of the source.
# Key:
# HCoV-229E [1] = experiment: HCoV-229E viral replication inhibition in MRC5 cells (antibody- or oligonucleotide-based dot blot); type: cell-based, human coronavirus HCoV-229E; details: for inhibition of HCoV-229E viral replication, agent alone: MRC5, MOI 0.1, 48 hours drug, antibody-based assay; for IC50: Human coronavirus 229E; for fold reduction of IC50 for inhibition of viral replication by VPA preincubation: preincubation 24 or 48 hours / at least 24 hours prior to infection
# MRC5 cells = experiment: VPA time course RNAseq in MRC5 cells, SARS-CoV2 interacting (Gordon) gene set; type: cell-based, Homo sapiens
# COVID-19 [2] = details: therapeutic VPA cohort; serum levels for 442 of 691 patients; cited from earlier work
# p21 = p21 induction time course in Vero cells; type: cell-based; details: 2.55 mM VPA
# [3] = Serum VPA levels in a national data set (LabCorp)
# SARS-CoV2 [4] = details: dose range of VPA (M range) less than the IC50 of HDAC2 inhibition; cited from earlier work
# [5] = use in pregnant women; cited from earlier work
# COVID-19 [6] = details: 165 VPA-treated patients admitted for COVID-19; cited from earlier work
# SARS-CoV2 [7] = experiment: Optum dataset case-control analysis: COVID-19 positivity by nucleic acid testing in patients prescribed VPA; type: in vivo; details: patients prescribed VPA vs not, exact-matched multivariate analysis
# SARS-CoV2 [8] = experiment: SARS-CoV2 replication in MRC5 cells, viral RNA by qRT-PCR; type: cell-based
# [9] = in vivo; cited from earlier work
# HCoV-229E [10] = experiment: Viral RNA as % of total RNA by RNAseq in MRC5 cells infected with HCoV-229E; type: cell-based, human coronavirus HCoV-229E; details: drug added after 1 hour viral incubation, 48 hours; VPA 0.1 or 0.5 mM, DHA 25 μM
# COVID-19 [11] = experiment: Optum retrospective cohort: clinical progression of COVID-19 in patients prescribed or not prescribed VPA; type: in vivo
# HDAC2 = HDAC2 (Chlorocebus sabaeus, UniProt A0A0D9RT33); experiment: Direct inhibition of HDAC2 activity in Vero cells; type: cell-based; details: read-out: IC50 of directly inhibiting HDAC2 activity
# Sequence of HDAC2 (A0A0D9RT33 1-488): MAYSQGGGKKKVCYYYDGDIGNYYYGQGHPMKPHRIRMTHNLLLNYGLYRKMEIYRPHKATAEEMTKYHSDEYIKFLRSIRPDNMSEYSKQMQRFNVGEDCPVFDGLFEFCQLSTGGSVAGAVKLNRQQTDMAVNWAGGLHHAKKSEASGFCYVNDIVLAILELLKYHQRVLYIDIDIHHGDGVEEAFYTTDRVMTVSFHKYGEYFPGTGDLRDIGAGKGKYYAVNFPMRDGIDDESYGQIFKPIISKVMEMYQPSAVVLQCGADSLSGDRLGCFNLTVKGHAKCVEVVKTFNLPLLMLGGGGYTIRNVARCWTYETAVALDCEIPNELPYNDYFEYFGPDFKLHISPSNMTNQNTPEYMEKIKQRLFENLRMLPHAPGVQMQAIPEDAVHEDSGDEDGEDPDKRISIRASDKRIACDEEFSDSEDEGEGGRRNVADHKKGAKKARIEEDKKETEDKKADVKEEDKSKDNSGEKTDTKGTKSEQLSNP
# [12] = patients on VPA tested by LabCorp, 2021
# [13] = COVID-19 infected patients exposed to VPA, propensity-matched or multivariate-adjusted model
smiles,measurement,setting,value
"CC/C=C\C/C=C\C/C=C\CCCCCCCC(=O)O [ALA, alpha-linolenic acid]","inhibition of HCoV-229E viral replication, agent alone",HCoV-229E [1],least impact; also recorded: least inhibition
"CCCCC/C=C\C/C=C\CCCCCCCC(=O)O [LA, linoleic acid]","inhibition of HCoV-229E viral replication, agent alone",HCoV-229E [1],substantial inhibitory effect; also recorded: significant inhibition of viral replication
"CC(/C=C/C(=O)NO)=C\[C@@H](C)C(=O)c1ccc(N(C)C)cc1 [Trichostatin A, trichostatin A]","inhibition of HCoV-229E viral replication, agent alone",HCoV-229E [1],did not significantly inhibit viral replication
same,inhibition of viral replication in combination with DHA,HCoV-229E [1]; with 25 μM DHA,inhibition across the board; also recorded: augmented at the very highest dose of Trichostatin A tested
"CCCC(CCC)C(=O)O [VPA, valproic acid]",expression of viral pathogenicity and replication genes (Gordon gene set),"MRC5 cells; MRC5 cells, VPA 24 and 48 hours",down-regulated preferentially
same,time before gene expression profile changes can be detected,"MRC5 cells; coronavirus permissive cell lines, VPA time course",at least 24 hours
same,time of maximal gene expression profile changes,"MRC5 cells; coronavirus permissive cell lines, VPA time course, in some cases",72 to 96 h
same,OR for contracting COVID-19,COVID-19 [2],0.218
same,time of earliest p21 induction,p21,24 h
same,time of maximal p21 induction,p21,72 h
same,share of samples testing 79 μg/mL or higher,"[3]; LabCorp, second quarter of 2021",25%
same,"serum VPA level, mean",[3]; [12],56.7 µg/mL and 56.65 µg/mL
same,"serum VPA level, median",[3]; [12],59.0 µg/mL and 59 µg/mL
same,inhibition of viral infection,SARS-CoV2 [4],no measurable inhibition of viral infection
same,elevation of the risk of certain birth defects,[5],roughly three-fold
same,clinical course vs matched controls,COVID-19 [6],"shorter duration of symptoms, lower in-hospital respiratory worsening, lower ICU admissions, and fewer pulmonary infiltrates"
same,mortality vs matched controls,COVID-19 [6],not statistically different
same,decreased risk of contracting COVID-19 / reduction in COVID-19 positive testing,SARS-CoV2 [7],25%
same,reduction by 24 hours preincubation,SARS-CoV2 [8]; 24 hours preincubation vs none,more than 50%
same,inhibitory activity against SARS-CoV2,"SARS-CoV2 [8]; MRC5, MOI 0.1, VPA 0.5 mM, DHA 25 μM",substantial inhibitory activity
same,effect of (additional) preincubation,"SARS-CoV2 [8]; VPA: additional preincubation up to 5 days, DHA: preincubation",did not provide any additional effects
same,% viral RNA detected compared to control MRC5 cells without drug,SARS-CoV2 [8]; preincubation by 24 hours,less than 10%
same,% viral RNA detected compared to control MRC5 cells without drug,SARS-CoV2 [8]; without preincubation,20%
same,target serum concentrations for seizure disorder,[9],50 to 100 µg/mL
same,IC50,"HCoV-229E [1]; MRC5, HCoV-229E, no preincubation, read-out: IC50 in conventional coronavirus replication assay",~5000 µM
same,IC50,"HCoV-229E [1]; MRC5, HCoV-229E, no preincubation, read-out: IC50 in conventional coronavirus replication assay, translated",> 720 mg/L
same,IC50,"HCoV-229E [1]; MRC5, read-out: IC50 for inhibition of viral replication, MRC5 incubated with valproic acid at least 24 hours prior to infection",~600 µM
same,IC50,"HCoV-229E [1]; MRC5, read-out: IC50 for inhibition of viral replication, corresponding serum level, MRC5 incubated with valproic acid at least 24 hours prior to infection",85 mg/L
same,dose required for antiviral activity,"HCoV-229E [1]; VPA used alone, in vitro testing",> 0.6 mM
same,dose requirement of VPA for antiviral activity in combination with DHA,HCoV-229E [1]; combination of DHA and VPA in vitro (FIG. 4B),0.1 mM
same,fold reduction of IC50 for inhibition of viral replication by VPA preincubation,HCoV-229E [1],more than 3 fold
same,fold reduction of IC50 for inhibition of viral replication by VPA preincubation,HCoV-229E [1]; listed as valproic acid,~10 fold
same,effect on viral replication (viral RNA as % of total RNA),HCoV-229E [10],not significantly impacted
same,reduction in ER visits,COVID-19 [11]; [13],12-15%
same,reduction in ICU admissions,COVID-19 [11]; [13],14-16%
same,reduction in hospital admission,COVID-19 [11]; [13],17-45%
same,reduction in mechanical ventilation,COVID-19 [11]; [13],33-39%
same,protective effect against emergency room visits,COVID-19 [11]; univariate (unadjusted) logistic regression,no protective effect against emergency room visits
same,IC50,HDAC2,≥ 2500 µM
C/C=C1\NC(=O)[C@H]2CSSCC/C=C/[C@H](CC(=O)N[C@H](C(C)C)C(=O)N2)OC(=O)[C@H](C(C)C)NC1=O [depsipeptide],IC50,"HCoV-229E [1]; MRC5, read-out: IC50 of inhibition of viral replication, with 25 μM DHA",0.0001 µM
same,IC50,"HCoV-229E [1]; MRC5, read-out: IC50 of inhibition of viral replication, without DHA",0.0008 µM
same,"inhibition of HCoV-229E viral replication, agent alone",HCoV-229E [1],significant inhibition of viral replication
